# Patent US20230219986A1, “NOVEL AMINOPYRIMIDINE EGFR INHIBITOR” (QILU PHARMACEUTICAL CO., LTD., priority 2020, published 2023)
# Read-outs that look alike come from different tables or passages of the source.
# Key:
# [1] = target: T1, wild-type EGFR (Homo sapiens, UniProt P00533); assay: Enzymology experiment in vitro (HTRF/FRET kinase activity), wild-type EGFR; assay type: biochemical; details: HTRF KinEASE-TK
# T1 construct: purchased Signalchem
# How it was run: (§1)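 HTRF KinEASE-TK format: EGFR enzyme preincubated with compound 10 min at room temperature, then peptide substrate plus ATP added for 40 min. Detection with EDTA, XL665-streptavidin and Eu³⁺-labeled antibody for 1 h.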
# [2] = test system: EGFR wild-type cell line A431; assay: Cell proliferation inhibition experiment (CellTiter-Glo), A431; assay type: cell-based; details: Homo sapiens, A431 cells, Cell Titer-Glo, read-out: A431 EGFR WT IC50
# How it was run: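 A431 cells, 800 per well, were cultured 24 h and then exposed to serially diluted compound (0.1% DMSO final) for 72 h at 37° C., 5% CO2.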
# [3] = target: Ba/F3 De119/T790M/C797S EGFR triple mutant cell line (Homo sapiens, UniProt P00533, T790M/C797S, cells depend on it, form not given); assay: Cell proliferation inhibition experiment (CellTiter-Glo), Ba/F3 De119/T790M/C797S; assay type: cell-based; details: Ba/F3 Del19/T790M/C797S EGFR triple mutant cells, 72 hours, Cell Titer-Glo; read-out: Ba/F3 (Del19/T790M/C797S) IC50
# Chain of Ba/F3 De119/T790M/C797S EGFR triple mutant cell line (P00533 with tags, fused parts or gaps DEL746-750/T790M/C797S, form open): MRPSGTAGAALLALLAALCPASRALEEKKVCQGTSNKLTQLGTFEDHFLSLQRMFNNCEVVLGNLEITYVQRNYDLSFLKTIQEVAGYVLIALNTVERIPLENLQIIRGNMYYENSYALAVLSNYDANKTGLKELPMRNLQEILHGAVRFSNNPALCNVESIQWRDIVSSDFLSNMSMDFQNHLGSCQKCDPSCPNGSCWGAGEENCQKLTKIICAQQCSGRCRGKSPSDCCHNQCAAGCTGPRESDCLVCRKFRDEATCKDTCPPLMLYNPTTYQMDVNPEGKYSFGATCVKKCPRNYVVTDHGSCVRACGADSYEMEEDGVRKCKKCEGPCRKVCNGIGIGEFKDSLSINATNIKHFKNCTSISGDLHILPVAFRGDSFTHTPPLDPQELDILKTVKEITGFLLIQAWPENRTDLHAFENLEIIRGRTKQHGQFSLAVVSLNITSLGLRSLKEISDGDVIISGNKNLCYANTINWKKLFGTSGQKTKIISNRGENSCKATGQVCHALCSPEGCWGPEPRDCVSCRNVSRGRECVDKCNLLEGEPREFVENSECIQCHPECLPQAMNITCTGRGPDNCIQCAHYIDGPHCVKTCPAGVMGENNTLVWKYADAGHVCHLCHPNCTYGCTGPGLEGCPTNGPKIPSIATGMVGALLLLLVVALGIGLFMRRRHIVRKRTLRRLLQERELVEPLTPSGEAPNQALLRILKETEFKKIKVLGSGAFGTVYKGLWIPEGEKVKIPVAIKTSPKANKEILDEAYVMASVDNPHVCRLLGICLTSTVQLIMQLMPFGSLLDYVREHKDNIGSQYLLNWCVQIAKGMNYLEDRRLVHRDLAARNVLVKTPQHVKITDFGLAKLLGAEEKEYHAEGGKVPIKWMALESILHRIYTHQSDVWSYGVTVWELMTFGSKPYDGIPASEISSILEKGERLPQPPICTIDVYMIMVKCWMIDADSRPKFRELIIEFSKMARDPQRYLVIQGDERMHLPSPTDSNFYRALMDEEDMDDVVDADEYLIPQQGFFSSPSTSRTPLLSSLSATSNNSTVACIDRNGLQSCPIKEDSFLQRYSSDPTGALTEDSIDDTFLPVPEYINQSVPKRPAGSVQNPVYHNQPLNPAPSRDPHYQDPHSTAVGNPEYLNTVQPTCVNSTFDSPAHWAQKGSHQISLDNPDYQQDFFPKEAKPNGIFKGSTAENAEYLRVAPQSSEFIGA
# [4] = target: Ba/F3 L858R/T790M/C797S EGFR triple mutant cell line (Homo sapiens, UniProt P00533, T790M/C797S/L858R, cells depend on it); assay: Cell proliferation inhibition experiment (CellTiter-Glo), Ba/F3 L858R/T790M/C797S; assay type: cell-based; details: 72 hours, Cell Titer-Glo, read-out: Ba/F3 (L858R/T790M/C797S) IC50
# Chain of Ba/F3 L858R/T790M/C797S EGFR triple mutant cell line (P00533 whole entry T790M/C797S/L858R): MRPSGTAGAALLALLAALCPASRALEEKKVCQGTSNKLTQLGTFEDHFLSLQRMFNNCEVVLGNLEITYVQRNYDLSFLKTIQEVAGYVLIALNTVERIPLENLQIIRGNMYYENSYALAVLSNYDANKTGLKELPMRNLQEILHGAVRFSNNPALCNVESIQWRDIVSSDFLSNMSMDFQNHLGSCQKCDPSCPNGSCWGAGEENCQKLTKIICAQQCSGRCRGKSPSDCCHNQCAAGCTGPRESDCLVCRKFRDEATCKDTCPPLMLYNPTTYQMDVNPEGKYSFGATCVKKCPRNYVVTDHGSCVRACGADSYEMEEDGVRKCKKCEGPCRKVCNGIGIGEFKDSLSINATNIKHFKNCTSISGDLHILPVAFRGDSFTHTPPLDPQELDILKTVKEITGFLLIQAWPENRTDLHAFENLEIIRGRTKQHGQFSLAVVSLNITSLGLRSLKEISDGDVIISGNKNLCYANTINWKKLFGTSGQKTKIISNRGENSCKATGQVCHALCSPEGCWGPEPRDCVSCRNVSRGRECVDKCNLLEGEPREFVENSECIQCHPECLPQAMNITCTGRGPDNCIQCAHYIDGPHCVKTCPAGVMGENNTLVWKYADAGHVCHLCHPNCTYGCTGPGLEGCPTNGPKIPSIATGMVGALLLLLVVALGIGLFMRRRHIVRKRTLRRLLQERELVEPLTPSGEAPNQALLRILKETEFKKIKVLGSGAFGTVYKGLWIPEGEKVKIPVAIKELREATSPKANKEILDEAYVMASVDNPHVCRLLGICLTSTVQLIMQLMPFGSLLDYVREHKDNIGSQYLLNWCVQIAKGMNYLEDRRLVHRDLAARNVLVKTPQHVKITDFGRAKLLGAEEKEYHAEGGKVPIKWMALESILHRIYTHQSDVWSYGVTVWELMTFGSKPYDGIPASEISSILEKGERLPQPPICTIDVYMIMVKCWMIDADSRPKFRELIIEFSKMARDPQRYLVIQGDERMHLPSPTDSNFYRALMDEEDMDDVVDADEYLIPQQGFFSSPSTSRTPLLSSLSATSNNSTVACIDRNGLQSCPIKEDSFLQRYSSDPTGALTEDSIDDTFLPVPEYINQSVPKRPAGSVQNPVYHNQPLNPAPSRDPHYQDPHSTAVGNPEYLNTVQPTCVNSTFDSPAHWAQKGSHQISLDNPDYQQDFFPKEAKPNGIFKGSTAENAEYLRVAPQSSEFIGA
# [5] = target: T2, L858R/T790M/C797S triple mutant EGFR (Homo sapiens, UniProt P00533, C797S/L858R/T790M); assay: Enzymology experiment in vitro (HTRF/FRET kinase activity), L858R/T790M/C797S triple mutant EGFR; assay type: biochemical; details: HTRF KinEASE-TK
# T2 construct: purchased Signalchem
# T2 sequence (P00533 25-1210 T790M/C797S/L858R): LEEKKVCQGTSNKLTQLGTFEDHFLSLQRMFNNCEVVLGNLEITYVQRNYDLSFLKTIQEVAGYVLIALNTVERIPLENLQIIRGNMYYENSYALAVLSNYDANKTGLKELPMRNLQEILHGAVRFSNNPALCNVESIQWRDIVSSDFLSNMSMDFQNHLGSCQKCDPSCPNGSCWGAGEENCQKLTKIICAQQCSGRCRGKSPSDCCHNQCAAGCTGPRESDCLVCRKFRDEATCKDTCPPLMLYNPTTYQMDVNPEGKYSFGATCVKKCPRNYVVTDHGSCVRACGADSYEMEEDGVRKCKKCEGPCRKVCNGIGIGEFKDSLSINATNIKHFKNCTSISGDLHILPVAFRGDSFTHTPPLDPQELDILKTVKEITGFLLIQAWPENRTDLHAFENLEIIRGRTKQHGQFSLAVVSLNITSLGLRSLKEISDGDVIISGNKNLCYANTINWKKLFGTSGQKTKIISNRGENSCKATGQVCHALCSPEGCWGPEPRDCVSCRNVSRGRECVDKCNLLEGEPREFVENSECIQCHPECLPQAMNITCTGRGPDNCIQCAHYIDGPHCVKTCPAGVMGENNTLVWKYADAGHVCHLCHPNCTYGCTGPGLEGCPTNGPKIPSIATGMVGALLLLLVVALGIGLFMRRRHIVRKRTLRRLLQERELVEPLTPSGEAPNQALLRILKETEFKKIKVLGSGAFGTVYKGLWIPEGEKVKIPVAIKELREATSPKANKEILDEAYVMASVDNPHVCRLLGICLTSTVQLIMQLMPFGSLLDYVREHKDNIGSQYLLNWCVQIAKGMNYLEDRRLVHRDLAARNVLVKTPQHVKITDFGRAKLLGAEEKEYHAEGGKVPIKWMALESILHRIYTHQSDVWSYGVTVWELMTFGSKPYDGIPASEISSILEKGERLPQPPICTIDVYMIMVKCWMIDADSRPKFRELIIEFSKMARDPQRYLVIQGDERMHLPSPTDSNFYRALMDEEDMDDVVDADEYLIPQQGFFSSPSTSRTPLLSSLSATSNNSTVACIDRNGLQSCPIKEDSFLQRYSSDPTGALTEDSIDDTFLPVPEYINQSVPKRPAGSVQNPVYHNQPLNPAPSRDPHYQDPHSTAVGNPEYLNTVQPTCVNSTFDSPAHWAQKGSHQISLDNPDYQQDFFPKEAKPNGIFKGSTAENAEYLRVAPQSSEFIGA
# How it was run: as §1
# [6] = read-out: EGFR (L858R/T790M/C797S) IC50
# T1 sequence (P00533 25-1210): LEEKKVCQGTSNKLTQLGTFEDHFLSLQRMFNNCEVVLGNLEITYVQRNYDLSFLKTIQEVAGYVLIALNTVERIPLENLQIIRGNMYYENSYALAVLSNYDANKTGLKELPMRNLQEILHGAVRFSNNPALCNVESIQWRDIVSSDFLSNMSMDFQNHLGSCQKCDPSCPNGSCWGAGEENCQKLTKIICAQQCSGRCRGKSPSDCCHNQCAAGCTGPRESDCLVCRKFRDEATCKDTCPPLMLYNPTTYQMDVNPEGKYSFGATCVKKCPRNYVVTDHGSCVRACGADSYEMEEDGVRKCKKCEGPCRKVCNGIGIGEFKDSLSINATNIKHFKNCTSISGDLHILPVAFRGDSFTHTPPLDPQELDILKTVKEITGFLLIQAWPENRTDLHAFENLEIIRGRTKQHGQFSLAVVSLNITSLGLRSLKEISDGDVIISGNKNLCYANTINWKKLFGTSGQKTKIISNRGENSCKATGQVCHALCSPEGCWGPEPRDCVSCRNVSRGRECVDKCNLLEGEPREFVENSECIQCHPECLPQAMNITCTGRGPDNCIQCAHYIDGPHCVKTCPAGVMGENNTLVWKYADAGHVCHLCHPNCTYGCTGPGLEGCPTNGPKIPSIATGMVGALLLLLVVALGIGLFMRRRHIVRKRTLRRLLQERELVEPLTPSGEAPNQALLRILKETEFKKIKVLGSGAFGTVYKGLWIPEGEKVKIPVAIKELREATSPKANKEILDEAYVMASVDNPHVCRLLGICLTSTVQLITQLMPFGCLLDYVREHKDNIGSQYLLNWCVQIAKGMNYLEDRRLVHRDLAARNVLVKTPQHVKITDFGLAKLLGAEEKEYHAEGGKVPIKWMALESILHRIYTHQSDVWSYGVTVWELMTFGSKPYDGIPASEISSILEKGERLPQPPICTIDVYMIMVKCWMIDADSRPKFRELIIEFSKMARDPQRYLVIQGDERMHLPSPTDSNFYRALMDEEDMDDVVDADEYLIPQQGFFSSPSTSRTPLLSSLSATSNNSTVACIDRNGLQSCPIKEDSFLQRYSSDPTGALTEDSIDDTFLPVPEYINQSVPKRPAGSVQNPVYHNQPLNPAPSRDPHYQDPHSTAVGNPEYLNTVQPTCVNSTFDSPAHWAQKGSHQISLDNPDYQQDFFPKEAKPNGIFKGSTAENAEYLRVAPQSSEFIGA
SMILES,IC50 ([1]; read-out: EGFR (WT) IC50),"IC50 ([2]; A-431, 72 h)",GI50 [3],GI50 [4],"IC50 [5, 6]",IC50 ([1]; EGFR (WT) IC50(nM)),"IC50 ([2]; A-431, 72 hours)",IC50 ([5]; EGFR (L858R/T790M/C797S) IC50(nM))
CCN1CCC2(CC1)CCN(c1cc(OC)c(Nc3ncc(Br)c(Nc4ccc5nccnc5c4P(C)(C)=O)n3)cc1-c1cnn(C)c1)CC2 [compound 226],1.4 nM,47.4 nM,1.55 nM,4.34 nM,0.19 nM,,,
COc1ncc(-c2cnn(C)c2)cc1Nc1ncc(Br)c(Nc2ccc3nccnc3c2P(C)(C)=O)n1 [compound 30],55.7 nM,284 nM,12.1 nM,62.6 nM,1.01 nM,,,
COCCN1CCN(C2CCN(c3cc(OC)c(Nc4ncc(Br)c(Nc5ccc6nccnc6c5P(C)(C)=S)n4)cc3-c3cnn(C)c3)CC2)CC1 [compound 232],,,3.16 nM,8.59 nM,,4.11 nM,126 nM,0.58 nM
COc1cc(N2CCC(C)(OC)CC2)c(-c2cnn(C)c2)cc1Nc1ncc(Cl)c(Nc2ccc3nccnc3c2P(C)(C)=O)n1 [compound 239],7.57 nM,141 nM,2.1 nM,4.61 nM,1.6 nM,,,
COc1cc(N2CCOCC2)c(-c2ccsc2)cc1Nc1ncc(Br)c(Nc2ccc3nccnc3c2P(C)(C)=O)n1 [compound 86],345 nM,3060 nM,87.8 nM,136 nM,15.6 nM,,,
"COc1nc(N2CCOCC2)c(-c2cnn(C)c2)cc1Nc1ncc(Br)c(Nc2ccc3nccnc3c2P(C)(C)=O)n1 [Compound 7, (6-((5-bromo-2-((2-methoxy-5-(1-methyl-1H-pyrazol-4-yl)-6-morpholinylpyridin-3-yl)amino)pyrimidin-4-yl)amino)quinoxalin-5-yl)dimethylphosphine oxide]",9.88 nM,159 nM,4.43 nM,14.8 nM,0.23 nM,,,
Cn1cc(-c2cc(Nc3ncc(Br)c(Nc4ccc5nccnc5c4P(C)(C)=O)n3)c(OCC(F)(F)F)nc2N2CCOCC2)cn1 [compound 34],15.2 nM,462 nM,2.04 nM,8.94 nM,0.27 nM,,,
COc1cc(C23CCOCC2C3)c(-c2cnn(C)c2)cc1Nc1ncc(Br)c(Nc2ccc3nccnc3c2P(C)(C)=O)n1 (centres unmarked) [compound 77],114 nM,480 nM,14.4 nM,26.4 nM,1.24 nM,,,
COc1cc(N2CCNC(=O)C2)c(-c2cnn(C)c2)cc1Nc1ncc(Br)c(Nc2ccc3nccnc3c2P(C)(C)=O)n1 [compound 105],5.62 nM,1190 nM,20.9 nM,61.9 nM,0.16 nM,,,
COc1cc(N2CCN(C(N)=O)CC2)c(-c2cnn(C)c2)cc1Nc1ncc(Br)c(Nc2ccc3nccnc3c2P(C)(C)=O)n1 [compound 112],0.92 nM,1100 nM,57 nM,161 nM,0.26 nM,,,
COc1cc(N2CCN(S(C)(=O)=O)CC2)c(-c2cnn(C)c2)cc1Nc1ncc(Br)c(Nc2ccc3nccnc3c2P(C)(C)=O)n1 [compound 110],1.54 nM,162 nM,3.7 nM,10.9 nM,0.57 nM,,,
COc1cc(N2CCC(N3CC(C)N(C)C(C)C3)CC2)c(-c2cnn(C)c2)cc1Nc1ncc(Br)c(Nc2ccc3nccnc3c2P(C)(C)=O)n1 (centres unmarked) [compound 197],0.62 nM,95.6 nM,7.7 nM,14.3 nM,0.25 nM,,,
COc1cc(N2CCN(C)CC2)c(-c2cnn(C)c2)cc1Nc1ncc(Br)c(Nc2ccc3nccnc3c2P(C)(C)=O)n1 [Compound 6],0.17 nM,24.5 nM,1.99 nM,5.96 nM,< 0.05 nM,,,
COc1c(Nc2ncc(Br)c(Nc3ccc4nccnc4c3P(C)(C)=O)n2)cc(-c2cnn(C)c2)c(N2CCC(N3CCN(C)CC3)CC2)c1F [compound 93],23.1 nM,178 nM,12.5 nM,27 nM,0.18 nM,,,
COc1cc(N2CCC(OC)CC2)c(-c2cnn(C)c2)cc1Nc1ncc(Br)c(Nc2ccc3nccnc3c2P(C)(C)=O)n1 [compound 26],5.75 nM,152 nM,1.22 nM,4.25 nM,0.49 nM,,,
COc1cc(N2CCC(N3CCN(C)CC3)CC2)c(-c2cscn2)cc1Nc1ncc(Br)c(Nc2ccc3nccnc3c2P(C)(C)=O)n1 [compound 98],16.2 nM,177 nM,11 nM,27.8 nM,0.82 nM,,,
"COc1cc(N2CCOCC2)c(-c2cnn(C)c2)cc1Nc1ncc(Br)c(Nc2cc3c(cc2N(C)S(C)(=O)=O)CC3)n1 [compound 147, N-(4-((5-bromo-2-((2-methoxy-5-(1-methyl-1H-pyrazol-4-yl)-4-morpholinylphenyl)amino)pyrimidin-4-yl)amino)bicyclo[4.2.0]octa-1,3,5-trien-3-yl)-N-methylmethanesulfonamide]",53 nM,475 nM,1.3 nM,2.93 nM,1.16 nM,,,
COc1cc(N2CCN(C3(C)COC3)CC2)c(-c2cnn(C)c2)cc1Nc1ncc(Br)c(Nc2ccc3nccnc3c2P(C)(C)=O)n1 [compound 184],2.23 nM,218 nM,2.28 nM,5.67 nM,0.24 nM,,,
COc1cc(N2CCO[C@@H](C)C2)c(-c2cnn(C)c2)cc1Nc1ncc(Br)c(Nc2ccc3nccnc3c2P(C)(C)=O)n1 [compound 170],4.94 nM,280 nM,1.8 nM,8.14 nM,0.45 nM,,,
COc1cc(N2CCC3C(C2)CN3C)c(-c2cnn(C)c2)cc1Nc1ncc(Br)c(Nc2ccc3nccnc3c2P(C)(C)=O)n1 (racemic) [compound 221],1.37 nM,26.2 nM,2.41 nM,2.79 nM,0.09 nM,,,
COc1cc(N2CCOCC2)c(-c2cnn(C)c2)cc1Nc1ncc(C)c(Nc2ccc3nccnc3c2P(C)(C)=O)n1 [compound 4],1.41 nM,194 nM,2.38 nM,13.6 nM,0.28 nM,,,
"COc1cc(N2CCC3(CCN(CC4(C#N)CC4)CC3)CC2)c(-c2cnn(C)c2)cc1Nc1ncc(Br)c(Nc2ccc3nccnc3c2P(C)(C)=O)n1 [compound 244, 1-((9-(4-((5-Bromo-4-((5-(dimethylphosphoryl)quinoxalin-6-yl)amino)pyrimidin-2-yl)amino)-5-methoxy-2-(1-methyl-1H-pyrazol-4-yl)phenyl)-3,9-diazaspiro[5.5]undecan-3-yl)methyl)cyclopropane-1-carbonitrile]",2.74 nM,125 nM,1.19 nM,2.43 nM,0.78 nM,,,
COc1cc(N2CCC3(CC2)CN(C(C)C)CCO3)c(-c2cnn(C)c2)cc1Nc1ncc(Br)c(Nc2ccc3nccnc3c2P(C)(C)=O)n1 [compound 202],3.74 nM,91.3 nM,2.93 nM,3.75 nM,0.59 nM,,,
COc1cc(N2CCC3(CCN(CCF)CC3)CC2)c(-c2cnn(C)c2F)cc1Nc1ncc(Br)c(Nc2ccc3nccnc3c2P(C)(C)=O)n1 [compound 231],1.12 nM,40.1 nM,1.08 nM,1.12 nM,0.37 nM,,,
COc1cc(N2CCOCC2)c(-c2cnn(C)c2)cc1Nc1ncc(Br)c(Nc2ccccc2NS(C)(=O)=O)n1 [Compound 80],8.85 nM,415 nM,5.37 nM,10.1 nM,0.01 nM,,,
